In PubChem BioAssay (NCI):
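A five-concentration, 48-hour dose response in 96-well plates underlies each endpoint, interpolated linearly between surrounding concentrations. At the GI50, growth is halved. TGI: total growth inhibition.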

System: MDA-MB-468 breast
Assay: DTP human tumour cell line panel, 48 h

Compound: O=C(/C=C/c1cccnc1)NCCCCC1CCN(C(=O)c2ccccc2)CC1
- GI50: 27.5 µM
- TGI: > 100 µM

Compound: CC1=C([Se]CC(OC(=O)CC[Se]c2ccccc2)C(=O)NCCCCCC(=O)OCc2ccccc2)C(=O)c2ccccc2C1=O (configuration not stated)
- GI50: 1.93 µM
- TGI: 4.63 µM

Compound: COc1ccccc1-[n+]1cc(-c2ccc(-c3ccccc3)cc2)n2c1CCCCC2
- TGI: 0.838 µM

Compound: c1ccc(Cc2nc3ccc(Nc4ncnc5ccccc45)cc3[nH]2)cc1
- GI50: 6.65 µM
- TGI: 24.3 µM

Compound: CC(=O)OC[C@H]1O[C@@H](n2ccc(=O)[nH]c2=O)[C@H](OC(C)=O)[C@@H]1OC(C)=O
- GI50: > 100 µM
- TGI: > 100 µM

Compound: Oc1ccc(/C=N\Nc2ccccn2)c(O)c1
- GI50: 2.43 µM
- TGI: 8.56 µM

Compound: CC(C)Oc1cc2c(cc1O)CC[C@@H]1[C@@H]2CC[C@]2(C)[C@@H](O)CC[C@@H]12
- GI50: 4.16 µM
- TGI: 25.6 µM

Compound: Cc1c(C#N)cccc1-c1cc(-c2cn(Cc3cccc(C(C)(C)O)n3)nn2)nc(N)n1
- GI50: 7.58 µM
- TGI: 55.6 µM

Compound: CCN(Cc1cccc(OC)c1)c1ccc(CO)c(Cl)c1
- GI50: 0.0174 µM
- TGI: 0.0456 µM

Compound: N[C@@H](Cc1c[nH]c2ccccc12)C(=O)NC1CCN(C(=O)c2c[nH]c3ccccc23)CC1
- GI50: 54.2 µM
- TGI: > 100 µM

Compound: COc1ccc(/C=C/C(=O)c2cc3c(N)c(C(=O)Nc4ccccc4Cl)sc3nc2C)cc1
- GI50: 0.279 µM
- TGI: 4.1 µM

Compound: Oc1ccc(Cc2ccc(O)c3ncccc23)c2cccnc12
- GI50: 0.278 µM
- TGI: 0.902 µM

Compound: Cc1cn(C2CC(F)C(CO)O2)c(=O)[nH]c1=O (configuration not stated)
- GI50: > 100 µM
- TGI: > 100 µM

Compound: COc1ccc(-n2c(SCc3cc(OC)c(OC)c(OC)c3)nc3ccc(C)cc3c2=O)c(OC)c1
- GI50: 3.16 µM
- TGI: 9.38 µM
